Results on one compound are retold here after patent publication US9012500B2, “PKC-ε activator” (Nishizaki Bioinformation Research Institute, priority 2010, dated 2015).

SMILES strings stand for the structures.

One assay has as its target T1, PKC-ε (Rattus norvegicus, UniProt P09216).
T1 construct: PC-12 cells were transfected with PKC-ε siRNA or NC siRNA; endogenous in cells; host or cells: rat PC-12 cells
T1 sequence (P09216 1-737): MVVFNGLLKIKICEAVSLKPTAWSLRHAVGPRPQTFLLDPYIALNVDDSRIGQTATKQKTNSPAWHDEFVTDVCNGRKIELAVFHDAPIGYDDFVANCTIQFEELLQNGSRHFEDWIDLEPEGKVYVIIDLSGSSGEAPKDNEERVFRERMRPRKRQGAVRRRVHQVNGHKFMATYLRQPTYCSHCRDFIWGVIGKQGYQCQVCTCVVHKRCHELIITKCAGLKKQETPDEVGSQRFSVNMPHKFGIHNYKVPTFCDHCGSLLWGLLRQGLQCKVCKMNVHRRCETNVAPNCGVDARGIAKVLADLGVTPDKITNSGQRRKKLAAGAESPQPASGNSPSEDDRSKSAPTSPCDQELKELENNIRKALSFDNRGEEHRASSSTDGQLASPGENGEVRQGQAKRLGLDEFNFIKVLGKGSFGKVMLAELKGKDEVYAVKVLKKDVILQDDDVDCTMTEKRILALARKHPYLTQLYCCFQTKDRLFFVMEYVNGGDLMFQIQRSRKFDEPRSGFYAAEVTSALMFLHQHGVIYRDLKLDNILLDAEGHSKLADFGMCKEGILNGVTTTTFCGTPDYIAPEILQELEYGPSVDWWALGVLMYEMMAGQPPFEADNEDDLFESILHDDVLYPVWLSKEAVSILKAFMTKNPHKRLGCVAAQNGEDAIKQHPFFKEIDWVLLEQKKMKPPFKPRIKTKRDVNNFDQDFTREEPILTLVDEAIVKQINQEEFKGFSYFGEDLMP
Kind of assay: Intracellular PKC assay after knockdown of PKC-ε (siRNA) in PC-12 cells. As to conditions: PKC-ε siRNA vs NC siRNA, FIG. 3. Type of assay: cell-based. The method, then:
According to the method described in a publication [Kanno T et al., J Lipid Res 47 (6):1146-1156, 2006], the PKC activity of rat PC-12 cells was assayed. The cells were treated with each DCP-LA optical isomer at 37° C. for 10 min. The treatment was performed in an extracellular solution [137 mM NaCl, 5.4 mM KCl, 10 mM MgCl2, 5 mM ethyleneglycol-bis(2-aminoethylether)-N,N,N′,N′-tetraacetic acid (EGTA), 0.3 mM Na2HPO4, 0.4 mM K2HPO4 and 20 mM 4-(2-hydroxyethyl)-1-piperazin-ethanesulfonic acid, pH 7.2]. Then, the cells were rinsed with 100 μl of phosphate-buffered saline (PBS) in the absence of Ca^2+, and incubated in an extracellular solution (50 μl) containing 50 μg/ml digitonin, 25 mM glycerol 2-phosphate, 200 μM ATP and 100 μM synthetic PKC substrate peptide (Pyr-Lys-Arg-Pro-Ser-Gln-Arg-Ser-Lys-Tyr-Leu (SEQ ID NO: 1); MW, 1,374; Pyr: […]) at 37° C. for 15 min. […] A substrate peptide peak and a new resultant product peak were detected at the absorbance of 214 nm (SPD-10Avp UV-VIS detector, Shimadzu Co., Kyoto, Japan). […] The molecular weight was calculated from the two standard spectra of bradykinin (MW 1060.2) and substance P (MW 1672.9).
The areas of the non-phosphorylated and phosphorylated substrate peptides were measured (total area corresponds to the concentration of PKC substrate peptide used). […]

In assay [1] the test system is senescence-accelerated mouse (SAMP8). Kind of assay: Water maze test in senescence-accelerated mouse (SAMP8). Type of assay: in vivo. As to conditions: SAMP8, 0.25 mg/kg orally once a day, 8 days. The method, then:
Using senescence-accelerated mouse (accelerated-senescence-prone mice 8: SAMP8) and normal senescence mouse (accelerated-senescence-resistant mice 1: SAMR1) as a control thereof, a water maze test was performed. Male SAMP8 and SAMR1 (22- to 25-week-old) were available from Takeda Pharmaceutical Company Limited (Osaka, Japan). The mice were individually raised in a cage at 23±1° C., 12 hr light/dark cycle (lighted at 7:00 am), and allowed to freely ingest feed (solid feed) and water.
Racemate DCP-LA and 4 optical isomers DCP-LA (α,α-, α,β-, β,α-, β,β-DCP-LA), each dissolved in 0.1 ml polyethylene glycol (PEG), or 0.1 ml PEG were orally administered once a day from the day when the water maze test was started. For each group, the water maze test was performed twice a day for 8 days, and the time required to reach a platform (acquisition latency) was measured.
For the water maze test, a circular plastic water tank (diameter 90 cm, depth 36 cm) was used. The inside of the water tank was completely painted in black, and dark water with India ink was filled up to 20 cm from the bottom (22° C.). A platform (diameter 11 cm) painted in black was placed in water such that it was 1 cm below the water surface. The water tank was placed in a test room, and several marks seen by the mice from the water tank were put thereon. During the test, the position of the marks was not changed. A platform was placed a predetermined position from the equal distance from the center and the end of the water tank, namely, center of one quadrant. At one of the randomly selected 5 points, the mouse was released facing the wall of the water tank, and the time necessary for evacuating on the platform (acquisition latency) was measured. When smoothly evacuated, the mouse was left on the platform for 10 seconds. From the day of water maze test and during the test, polyethylene glycol (PEG) alone or racemate DCP-LA (1 mg/kg), α,α-DCP-LA (0.25 mg/kg), α,β-DCP-LA (0.25 mg/kg), β,α-DCP-LA (0.25 mg/kg), or β,β-DCP-LA (0.25 mg/kg), each dissolved in PEG, was orally administered every day. The water maze test was performed twice a day, and the second test was started at 2 min from the first test. The test was continuously performed for 8 days, and the average value (±SEM) of acquisition latency of continuous 2 days until the mouse reached the platform was calculated (each n=5).

For `CCCCC[C@@H]1C[C@@H]1C[C@@H]1C[C@H]1CCCCCCCC(=O)O` [α,β-DCP-LA, 8-[(1R,2S)-2-{(1R,2R)-2-pentylcyclopropylmethyl}-cyclopropyl]octanoic acid], the “PKC activation induced by the compound after knocking down PKC-ε” value on PKC-ε is reported as “inhibited by knocking down PKC-ε”. In assay [1], the “acquisition latency as compared to the PEG administration group” value is reported as “shortened acquisition latency”, the “acquisition latency as compared to the racemate DCP-LA (1 mg/kg) administration group” value is listed as “significantly shortened acquisition latency” and the “acquisition latency as compared to the α,α-DCP-LA (0.25 mg/kg) administration group” value is given as “significantly shortened acquisition latency”.
